Assay results taken from patent US12440454B2, “Pharmaceutical compositions containing hemp extract for administration to felines and related methods” (Portland Technology Holdings LLC, priority 2022, dated 2025).

Key:
[1] = 24 hour pharmacokinetic analysis of serum cannabinoids after oral CBD/CBDA rich hemp paste; conditions: for detectability in serum of cats at any time point: 24 hour PK; for Css Ave (calculated predicted 5 half-life mean serum concentration): predicted steady state from one compartment model
Text: (§1) Eight cats from a contract research laboratory (Summit Ridge Farms, Gibson, PA) were utilized for this experiment. 4 spayed female cats and 4 neutered male cats were used. […] The cat population ranged from 4.1 kg to 5.4 kg (mean weight 4.7 kg). An initial dosage of 1 g of paste was fed to each cat at zero hours. Additionally, and after the initial 24-hour pharmacokinetic assessment, treatment with 1 g of paste resumed on the next day for 6 days, twice daily at 7 am and 4 pm each day. […] Cats were fed their normal daily meal approximately 1 hour after oral paste consumption. The base of the paste was a proprietary mix of soy oil, dextrose, dried chicken liver, silica, inulin, polysorbate 60, potassium sorbate, sorbic acid, saccharin, mixed tocopherols, methylparaben, propylparaben in descending order of volume with 15% cannabinoid rich hemp oil emulsified with the product. Prior to enrollment all cats involved in the study were deemed healthy and normal based on physical examination, complete blood count and serum chemistry assessment. During the 1-week trial examination of all cats were assessed at the 1 and 4 hour time point after morning dosing. The assessment included examination for physical abnormalities and examination for adverse events including diarrhea, vomiting, lethargy, somnolence, ataxia, or abnormal behavior within the colony during treatment. Regarding the 24 hour pharmacokinetic study, two milliliters of blood was drawn via jugular venipuncture for all 8 cats prior to the initial dose and then again at 0.5, 1, 2, 4, 8 and 24 hours for a 7 point pharmacokinetic analysis. Complete blood counts, serum chemistry and serum cannabinoid concentrations were performed before the initial treatment and at the end of day 7 treatment, 6 hours after the morning treatment. Complete blood count data included white blood cells (WBC), hematocrit, hemoglobin, red blood cells (RBC), neutrophils, lymphocytes, platelets, monocytes, eosinophils, basophils). Serum biochemistry analyses included sodium, potassium, chloride, magnesium, calcium, phosphorus, albumin, total protein, globulin, urea nitrogen, creatinine, alkaline phosphatase (ALP), alanine aminotransferase (ALT), aspartate amino transferase (AST), cholesterol, total bilirubin, glucose and gamma glutamyl transferase (GGT) with a focus of this report being renal and hepatic parameters. All blood parameters measured were performed at the Cornell University Diagnostic Laboratory.
(§2) Analysis was performed using an exploratory (fit-for-purpose) method for fast measurement of thirteen cannabinoids and their metabolites at the Toxicology Research Laboratory, University of Illinois at Chicago.
Cat serum (40 μL) was mixed with 20 μL of internal standards [100 ng/mL of CBD-d3, THC-d3, THCA-d3, 7-COOH-CBD-d3, 7-OH-CBD-d5, 11-OH-THC-d3, COOH-THC-d9, and COOH-THC-Glu-d3 in water:methanol (50:50)] in a 96 well plate. Proteins were precipitated and compounds were extracted by adding 100 μL of ice-cold acetonitrile to the samples, then vortexing for 1-2 minutes and centrifuging at 4,000 rpm for 10 minutes at 4° C. Supernatants (70 μL) were mixed with 70 μL of water in a different 96 well plate, and centrifuged again. […] The column was equilibrated with mobile phase A (0.1% formic acid in water) and mobile phase B (acetonitrile) at 50% B. The compounds were eluted by a linear gradient from 50% B to […] over 6 minutes, and then held at 95% B for 1 minute. Subsequently, the column was re-equilibrated at initial composition for 1 minute at a flow rate of 0.3 mL/min. The autosampler and column temperature were set a 4 and 30° C., respectively. The compounds were detected in electrospray ionization positive and/or negative mode.

[2] = Serum cannabinoid concentrations after one week of twice daily dosing (day 7, 6 hours post morning dose) compared with predicted steady state; conditions: Student T-test
Text: as §1, §2
Cat serum (40 μL) was mixed with 20 μL of internal standards [100 ng/mL of CBD-d3, THC-d3, THCA-d3, 7-COOH-CBD-d3, 7-OH-CBD-d5, 11-OH-THC-d3, COOH-THC-d9, and COOH-THC-Glu-d3 in water:methanol (50:50)] in a 96 well plate. Proteins were precipitated and compounds were extracted by adding 100 μL of ice-cold acetonitrile to the samples, then vortexing for 1-2 minutes and centrifuging at 4,000 rpm for 10 minutes at 4° C. Supernatants (70 μL) were mixed with 70 μL of water in a different 96 well plate, and centrifuged again. […] The compounds were detected in electrospray ionization positive and/or negative mode.

[3] = both, cat, in vivo, po, 1 g of paste
[4] = both, in vivo, po, 1 g of paste
[5] = cats, single oral 1 g paste, serum, 0-24 h, mean ± SD
[6] = cats, single oral 1 g paste, serum, mean ± SD

Structure (SMILES): C=C(C)[C@@H]1CCC(C(=O)O)=C[C@H]1c1c(O)cc(CCCCC)cc1O [7-COOH-CBD, 7-COOH cannabidiol]
- detectability in serum of cats at any time point ([1]; cats, serum): found in all cats

Structure (SMILES): C=C(C)[C@@H]1CCC(CO)=C[C@H]1c1c(O)cc(CCCCC)cc1O [7-OH-CBD, 7-OH-cannabidiol]
- detectability in serum of cats at any time point ([1]; cats, serum): either below the detectable limit for the analyte or less than half of the population showed any appreciable concentration
- cats showing no detectable concentrations of this metabolite ([1]; of the 8 cats, serum): 5

Structure (SMILES): CCCCCc1cc(O)c2c(c1)OC(C)(C)[C@@H]1CCC(CO)=C[C@@H]21 [11-OH-THC, 11-OH-tetrahydrocannabinol]
- detectability in serum of cats at any time point ([1]; cats, serum): either below the detectable limit for the analyte or less than half of the population showed any appreciable concentration

Structure (SMILES): CCCCCc1cc(O)c2c(c1)OC(C)(CCC=C(C)C)C=C2 (centres unmarked) [CBC, cannabichromene]
- detectability in serum of cats at any time point ([1]; cats, serum): either below the detectable limit for the analyte or less than half of the population showed any appreciable concentration

Structure (SMILES): C=C(C)[C@@H]1CCC(C)=C[C@H]1c1c(O)cc(CCCCC)cc1O [CBD, cannabidiol, reference compound]
- predicted steady state (Css Ave) versus actual serum concentration [2]: predicted concentration was higher than the actual concentration
- Cmax [1, 3]: 282 ng/mL
- AUC(0-t) [1, 4]: 908 ± 528 ng·h/mL
- Tmax [1, 4]: 2 h
- half-life [1, 4]: 126 ± 66 min
- Css Ave (calculated predicted 5 half-life mean serum concentration) ([1]; cats, mean ± SD): 102.1 ± 46.3 ng/mL

Structure (SMILES): C=C(C)[C@@H]1CCC(C)=C[C@H]1c1c(O)cc(CCCCC)c(C(=O)O)c1O [CBDA, cannabidiolic acid]
- predicted steady state (Css Ave) versus actual serum concentration [2]: predicted concentration was higher than the actual concentration
- Cmax [1, 3]: 1010 ng/mL
- AUC(0-t) [1, 4]: 2640 ± 1280 ng·h/mL
- Cmax [1, 4]: 1010 ± 495 ng/mL
- Tmax [1, 4]: 1.6 ± 1.1 h
- Css Ave (calculated predicted 5 half-life mean serum concentration) ([1]; cats, mean ± SD): 204.5 ± 87.8 ng/mL

Structure (SMILES): CCCCCc1cc(O)c(C/C=C(\C)CCC=C(C)C)c(O)c1 [CBG, cannabigerol]
- AUC(0-t) ([1]; both, in vivo, po): 11.4 ± 2.8 ng·h/mL
- Cmax ([1]; both, in vivo, po): 4.35 ± 1 ng/mL
- MRT ([1]; both, in vivo, po): 2.3 ± 0.1 h
- Tmax ([1]; both, in vivo, po): 2 h
- half-life ([1]; both, in vivo, po): 54 ± 6 min

Structure (SMILES): CCCCCc1cc(O)c(C/C=C(\C)CCC=C(C)C)c(O)c1C(=O)O [CBGA, cannabigerolic acid]
- predicted steady state (Css Ave) versus actual serum concentration [2]: predicted concentration was higher than the actual concentration
- AUC(0-t) [1, 4]: 34.1 ± 9.5 ng·h/mL
- Cmax [1, 4]: 19.7 ± 5.5 ng/mL
- MRT [1, 4]: 1.5 ± 0.2 h
- Tmax [1, 4]: 1 ± 0.2 h
- half-life [1, 4]: 42 ± 6 min
- Css Ave (calculated predicted 5 half-life mean serum concentration) ([1]; cats, mean ± SD): 4.8 ± 1.3 ng/mL

Structure (SMILES): CCCCCc1cc(O)c2c(c1)OC(C)(C)c1ccc(C)cc1-2 [CBN, cannabinol]
- detectability in serum of cats at any time point ([1]; cats, serum): either below the detectable limit for the analyte or less than half of the population showed any appreciable concentration

Structure (SMILES): CCCCCc1cc(O)c2c(c1)OC(C)(C)[C@@H]1CCC(C(=O)O)=C[C@@H]21 [COOH-THC, COOH-tetrahydrocannabinol]
- detectability in serum of cats at any time point ([1]; cats, serum): either below the detectable limit for the analyte or less than half of the population showed any appreciable concentration

Structure (SMILES): CCCCCc1cc(O)c2c(c1)OC(C)(C)[C@H]1CCC(C(=O)O[C@@H]3O[C@H](C(=O)O)[C@@H](O)[C@H](O)[C@H]3O)=C[C@H]21 [COOH-THC-glu, COOH-glucuroniated tetrahydrocannabinol]
- detectability in serum of cats at any time point ([1]; cats, serum): either below the detectable limit for the analyte or less than half of the population showed any appreciable concentration

Structure (SMILES): CCCCCc1cc(O)c2c(c1)OC(C)(C)[C@@H]1CCC(C)=C[C@@H]21 [THC, Δ9-tetrahydrocannabinol, reference compound]
- predicted steady state (Css Ave) versus actual serum concentration [2]: predicted concentration was higher than the actual concentration
- Css Ave (calculated predicted 5 half-life mean serum concentration) ([1]; cats, mean ± SD): 11.9 ± 5.2 ng/mL
- detectability in serum of cats at any time point ([1]; cats, serum): either below the detectable limit for the analyte or less than half of the population showed any appreciable concentration
- AUC(0-t) [1, 5]: 156.5 ± 65.8 ng·h/mL
- Cmax [1, 6]: 40.9 ± 12.9 ng/mL
- MRT [1, 6]: 3.7 ± 0.4 h
- T1/2 el [1, 6]: 1.6 ± 0.4 h
- Tmax [1, 6]: 2 ± 0 h

Structure (SMILES): CCCCCc1cc2c(c(O)c1C(=O)O)C1C=C(C)CCC1C(C)(C)O2 (centres unmarked) [THCA, Δ9-tetrahydrocannabinolic acid]
- predicted steady state (Css Ave) versus actual serum concentration [2]: no different
- Css Ave (calculated predicted 5 half-life mean serum concentration) ([1]; cats, mean ± SD): 43.3 ± 13.9 ng/mL
- AUC(0-t) [1, 5]: 434.0 ± 229.1 ng·h/mL
- Cmax [1, 6]: 87.9 ± 34.0 ng/mL
- MRT [1, 6]: 5.5 ± 2.1 h
- T1/2 el [1, 6]: 3.8 ± 1.3 h
- Tmax [1, 6]: 2 ± 0.9 h
